Measurements from patent US20060116368A1, “4-Piperidinecarboxamide modulators of vanilloid VR1 receptor” (priority 2004, published 2006).

Target: T1, Human Vanilloid Receptor 1 (Homo sapiens, UniProt Q8NER1)
T1 construct: expressed in transfected cells; host or cells: HEK 293
Assay: Human VR1 functional assay using FLIPR, Protocol 2
Type: cell-based
Description: The functional activity of the test compounds was determined by measuring changes in intracellular calcium concentration using FLIPR™ Calcium-3 Assay Kit and FLIPR™ technology.
HEK 293 cells stably transfected with Human Vanilloid Receptor 1 were maintained at 37° C. and 5% CO2 in: Dulbecco's Modification of Eagle's Medium (4.5 g/L glucose, L-glutamine, sodium pyruvate), 10% FBS, 1× Penicillin-Streptomycin, 400 ug/mL G418 Sulfate. Approximately 24 hours prior to assay, 5,000 cells/well were plated onto a 384-well black clear bottom poly-D-lysine-coated assay plate with a well volume of 25 μL using Titertek Multidrop.
On the day of the assay, the medium was dumped and 50 μL of dye (bulk kit vials diluted with 200 mL buffer) was loaded using Multidrop. Plates were incubated with dye at 37° C. for 30 minutes followed by 30 minutes incubation at room temperature. Then the plates were assayed by FLIPR™ with 2 additions: 12.5 μL test compound with 5 minutes data acquisition followed by 12.5 μL capsaicin at the EC80 concentration.
The EC50 values of test compounds were calculated based on a test compound-induced calcium response at the 5-minute time point. The IC50 values of compounds were calculated based on a decreased capsaicin-induced calcium response in the presence of test compound.

T1 sequence (Q8NER1 whole entry): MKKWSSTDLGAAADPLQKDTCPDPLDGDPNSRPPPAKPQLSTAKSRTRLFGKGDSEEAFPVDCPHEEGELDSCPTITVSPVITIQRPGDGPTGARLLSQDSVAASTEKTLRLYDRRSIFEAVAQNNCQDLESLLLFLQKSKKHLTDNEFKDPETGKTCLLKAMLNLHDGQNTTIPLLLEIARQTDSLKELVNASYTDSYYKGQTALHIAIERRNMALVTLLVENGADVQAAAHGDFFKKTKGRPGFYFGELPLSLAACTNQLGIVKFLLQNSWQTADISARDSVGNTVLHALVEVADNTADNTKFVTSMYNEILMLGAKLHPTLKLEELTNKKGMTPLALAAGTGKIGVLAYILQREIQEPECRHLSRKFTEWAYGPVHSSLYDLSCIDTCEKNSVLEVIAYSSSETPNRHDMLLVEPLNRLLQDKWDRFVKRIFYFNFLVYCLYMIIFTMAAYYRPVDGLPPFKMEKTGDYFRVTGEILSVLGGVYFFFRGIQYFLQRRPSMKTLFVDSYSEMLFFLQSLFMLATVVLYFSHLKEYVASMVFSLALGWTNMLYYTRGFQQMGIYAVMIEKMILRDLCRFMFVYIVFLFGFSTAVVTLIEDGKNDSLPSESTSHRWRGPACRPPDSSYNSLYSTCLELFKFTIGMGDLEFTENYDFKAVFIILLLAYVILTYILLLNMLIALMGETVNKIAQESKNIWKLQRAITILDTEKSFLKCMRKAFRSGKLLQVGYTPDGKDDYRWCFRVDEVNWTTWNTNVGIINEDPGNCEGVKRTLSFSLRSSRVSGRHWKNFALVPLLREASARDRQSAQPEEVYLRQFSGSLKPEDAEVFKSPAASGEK

Row | Structure (SMILES) | % E80 Capsaicin (1.2 uM) (1.2 uM, test compound-induced calcium response (agonist mode), HEK 293 stably transfected hVR1) [%] | h % I (1 uM) (1 uM, inhibition of capsaicin (EC80)-induced calcium response, HEK 293 stably transfected hVR1) [%] | IC50 (decreased capsaicin (EC80)-induced calcium response, HEK 293 stably transfected hVR1, read-out: h IC50) [nM]
1 | O=C(Nc1ccc2c(c1)NC(=O)C(C(=O)O)O2)C1CCN(c2cc(F)c(F)c(F)c2)CC1 (stereo not drawn) [Example 178, 3-Oxo-6-{[1-(3,4,5-trifluoro-phenyl)-piperidine-4-carbonyl]-amino}-3,4-dihydro-2H-benzo[1,4]oxazine-2-carboxylic acid] | 80 |  | 
2 | O=C(Nc1ccc2c(c1)NC(=O)C(CCO)O2)C1CCN(c2cc(F)c(F)c(F)c2)CC1 (stereo not drawn) [Example 174, 1-(3,4,5-Trifluoro-phenyl)-piperidine-4-carboxylic acid [2-(2-hydroxy-ethyl)-3-oxo-3,4-dihydro-2H-benzo[1,4]oxazin-6-yl]-amide] |  | 99 | 4.8
